In patent US20240336658A1, “CYCLIC PEPTIDE AND PREPARATION METHOD AND USE THEREOF” (HANGZHOU HUIBO SCIENCE AND TECHNOLOGY CO., LTD, priority 2021, published 2024):

Legend:
[1] = system: full-thickness skin defect wound surfaces; assay: Effects of cyclic peptide Hst1 on wound repair in mice (Example 10): healing rate, HE/Masson histology, CD31/VEGF immunohistochemistry; assay type: in vivo, C57 BL/6 mice; settings: day 10, Masson staining; 0.1 μM Click-Histatin1, 0.1 μM Sortase A-cyclic histatin1, 10 μM Histatin1
Method: This example adopted the propargylglycine-Hst1 cyclic peptide (Click-Histatin1) provided in Example 1, a cyclized Hst1 (Sortase A-cyclic histatin1) prepared by the Sortase A enzymatic method provided in Example 4, and a linear peptide Hst1 (Histatin1) to conduct animal experiments to observe the effect of the propargylglycine-Hst1 on the healing rates of the wound surfaces of mice. The concentration of the linear peptide Hst1 was 10 μM, the concentration of the propargylglycine-Hst1 cyclic peptide was 0.1 μM, and the concentration of the cyclized Hst1 prepared by the Sortase A enzymatic method was each 0.1 μM. 12 healthy male special pathogen-free grade C57 BL/6 mice (purchased from Guangdong Experimental Animal Center) of 6-8 weeks old and weighing 22-28 g. They were intraperitoneally injected with 5 ml/kg of 1% pentobarbital sodium for anesthesia. After the mice had no corneal reflex, the hair on their backs was carefully removed and disinfected with alcohol. […] full-thickness skin defect wound surfaces were prepared on the back of each mouse by using a circular skin punch. The 12 mice were divided into a Control (blank) group with 3 mice, a 10 μM linear peptide Hst1 (Histatin1) group with 3 mice, a 0.1 μM propynylglycine-Hst1 cyclic peptide (Click-Histatin1) group with 3 mice, and a 0.1 μM cyclized Hst1 prepared by a Sortase A enzymatic method (Sortase A-cyclic histatin1) group with 3 mice, according to a random number table method. Each wound surface was added with 0.5 ml of four drugs respectively, and administration was conducted every day until the wound surfaces of the experimental groups healed. Photographs were taken on days 0, 3, 5, 7, and 10 after surgery, and wound tissues were sampled on day 10 for subsequent pathological staining. On days 0, 3, 5, 7, and 10 after injury, the general condition of wound healing of the mice was observed and photographed with a digital camera (see FIG. 4), and the wound healing rate was calculated (see FIG. 5). Wound healing rate=(wound area immediately after injury−unhealed wound area at each time point)[…]wound area immediately after injury×100%. The wound specimens were fixed in 4% paraformaldehyde for 48 hours, rinsed with tap water for 10 minutes, dehydrated with graded ethanol, permeabilized with xylene, and embedded in paraffin to prepare 4 μm thick sections. Some sections were taken for HE staining and Masson staining, and observed for the thickness of the granulation tissue, the length of the dermal gap, and the newly grown collagen of the wound surface under an inverted fluorescence microscope at 40×, 100×, 200×, and 400× respectively (see FIGS. 6 and 7). 5 sections were taken from each mouse, and 5 fields of view were selected for each section. Data analysis was performed using the software Image-pro Plus. […] It was added with a rabbit anti-mouse CD31 primary antibody (with a dilution ratio of 1:300) and a mouse anti-VEGF (with a dilution ratio of 1:100), incubated overnight at 4° C., and washed with PBS. […] It was subjected to DAB development, hematoxylin counterstaining. gradient ethanol dehydration, xylene permeabilization, and resin blocking. 5 sections were taken from each mouse, and 5 fields of view were selected for each section. The sections were observed under a 400× inverted fluorescence microscope, and analyzed for the number of CD31-positive blood vessels (see FIG. 8) and VEGF expression amounts (see FIG. 9, shown in brown) by using Image-pro Plus software. The measurement data were expressed by M±SD, and the data were analyzed by one-way analysis of variance (ANOVA) and an independent samples T-test with SPSS 20.0 software to detect whether the differences among the groups were statistically significant, and a Bonferroni test was used for pairwise comparison. *p<0.05. **p<0.01. ***p<0.001 meant the difference was statistically significant, and p>0.05 was not statistically significant.

[2] = Solubility of prepared cyclic peptide; assay type: physicochemical
fibroblasts (NIH/3T3) = assay: Scratching experiment, Hst1 cyclic peptides (Examples 11 and 12); assay type: cell-based; settings: dosage needed to achieve the same pharmaceutical effect in the scratch experiment
Method: At the same time, fibroblasts (NIH/3T3; GNM 6; Chinese Academy of Sciences, China) were plated into a 6-well plate at a number of 2×10^6/well and cultured to a density of 70-80%. The cells were starved for 8-12 hours before the experiment. Mitomycin C (Sigma Aldrich, USA) was added into the culture medium to make its concentration in the culture medium be 15 μg/ml, and the culture medium was changed after 3 hours of treatment. Scratching was conducted with a 200 μl pipette tip perpendicular to the bottom of the well-plate with the same force, and the well-plate was rinsed with PBS twice after scratching. Each well was added with an appropriate amount of a DEME medium (10% FBS, 1% double antibody), and except for the blank control group, each well was added with 10 μM of the linear Hst1, 0.01 μM of the propynylglycine-Hst1 cyclic peptide, 0.1 μM of the propynylglycine-Hst1 cyclic peptide and 1 μM of the propynylglycine-Hst1 cyclic peptide as experimental groups. At 0 hour, the cells in each group were photographed by using a microscope (Olympus, Japan). […] The scratched area of each group was calculated by using imageJ (Rawak Software, Inc. Germany) software, and the scratch area at 0 hour was an initial scratch area. The scratch healing rate was calculated as follows: […]

Question: For “Sortase A-cyclic histatin1: cyclized Hst1 prepared by the literature Sortase A enzymatic method (Bolscher, FASEB Journal) (DSHEKRHHGYRRKFHEKHHSHREFPFYGDYGSNYLYDN; Histatin-1 cyclized via sortase A; UniProt P15515 20-57, looked up) [reference compound]”, which “expression amount of collagen at the wound surfaces” value [1] is on record?
Answer: significantly higher than that of the Control group

Question: And the solubility [2]?
Answer: poor solubility

Question: What about the “Dosage of agents required for scratch test” value (fibroblasts (NIH/3T3)) of the same substance?
Answer: 0.12 µM
